{"source": "paper PMC3502511", "about": "“Inhibition of the Prokaryotic Pentameric Ligand-Gated Ion Channel ELIC by Divalent Cations” (PLoS Biology, 2012)", "format_in_all_cases": "cell-based, Erwinia chrysanthemi", "key": {"[1]": {"target": "T1, ELIC R91A (Dickeya chrysanthemi, UniProt P0C7B7, INS163G/R91A)", "T1 construct": "expressed in transfected cells; host or cells: X. laevis oocytes", "test": "Two-electrode voltage clamp, ELIC R91A in oocytes", "description": "(§1) Constructs containing the gene of either the WT or mutant channels preceded by the signal sequence of the chicken α7nAchR were cloned into the pTLN vector for expression in X. laevis oocytes. After linearization of the plasmid DNA by MluI, capped complementary RNA was transcribed with the mMessage mMachine kit (Ambion) and purified with the RNeasy kit (Qiagen). For expression, 1–50 ng of RNA was injected into defolliculated oocytes. Two-electrode voltage clamp measurements were performed 1 d after injection at 20°C (OC-725B, Warner Instrument Corp.). Currents were recorded in bath solutions containing 10 mM HEPES (pH 7), 130 mM NaCl, and the indicated concentrations of cysteamine and divalent cations. In case of solutions containing Zn^2+, cysteamine was replaced by propylamine. The membrane potential in all dose–response measurements was set to −40 mV. As ELIC is permeable to divalent cations, we tested if endogenous calcium-activated chloride channels affected our measurements. To chelate intracellular calcium ions, the oocytes were incubated for 15 to 30 min in bath solutions lacking divalent ions but containing 10 µM BAPTA-AM."}, "[2]": {"target": "T2, ELIC WT (Dickeya chrysanthemi, UniProt P0C7B7, INS163G)", "T2 construct": "expressed in transfected cells; host or cells: X. laevis oocytes (cRNA injection, pTLN vector)", "test": "cell-based", "conditions": "Ki app, Schild analysis", "description": "as §1"}, "[3]": {"target": "T3, ELIC D113A/D158A (Dickeya chrysanthemi, UniProt P0C7B7, D113A/D158A/INS163G)", "T3 construct": "expressed in transfected cells; host or cells: X. laevis oocytes", "test": "cell-based", "description": "as §1"}}, "data": [{"smiles": "CC(=O)OCC[N+](C)(C)C", "note": "[ACh, acetylcholine]", "values": [{"measurement": "Ki", "setting": "[1]", "result": 170, "unit": "µM"}, {"measurement": "Ki", "setting": "[2]; WT/1 mM Ca^2+", "result": 2.2, "unit": "mM"}, {"measurement": "Ki", "setting": "[2]; WT/.25 mM Ca^2+", "result": 1.2, "unit": "mM"}, {"measurement": "Ki", "setting": "[2]; WT/.5 mM Ca^2+", "result": 1.3, "unit": "mM"}, {"measurement": "Ki", "setting": "[2]; WT, agonist cysteamine", "result": 1.6, "unit": "mM"}, {"measurement": "Ki", "setting": "[3]", "result": 2.1, "unit": "mM"}]}]}
